Test results from publication doi:10.1101/2021.09.30.462449v1 (biorxiv, 2021).

Assays:
Assay in all cases: biochemical
Conditions in all cases: read-out: % inhibition mean (Lanthascreen)
[1] = target: MAP4K1 (HPK1) (Homo sapiens, UniProt Q92918)
[2] = target: ZAK (Homo sapiens, UniProt Q9NYL2)
[3] = target: SLK (Homo sapiens, UniProt Q9H2G2)
[4] = target: WEE1 (Homo sapiens, UniProt P30291)
[5] = target: TNIK (Homo sapiens, UniProt Q9UKE5)
[6] = target: MAP2K6 (MKK6) S207E T211E (Homo sapiens, UniProt P52564, S207E/T211E)
[7] = target: WNK1 (Homo sapiens, UniProt Q9H4A3)
[8] = target: MAP3K5 (ASK1) (Homo sapiens, UniProt Q99683)
[9] = target: NEK8 (Homo sapiens, UniProt Q86SG6)
[10] = target: ICK (Homo sapiens, UniProt Q9UPZ9)
[11] = target: DAPK2 (Homo sapiens, UniProt Q9UIK4)
[12] = target: DDR2 (Homo sapiens, UniProt Q16832)
[13] = target: STK17A (DRAK1) (Homo sapiens, UniProt Q9UEE5)
[14] = target: FGFR1 V561M (Homo sapiens, UniProt P11362, V561M)
[15] = target: AMPK (A2/B2/G1) (Homo sapiens, UniProt P54646)
[16] = target: STK32B (YANK2) (Homo sapiens, UniProt Q9NY57)
[17] = target: CDK16 (PCTK1)/cyclin Y (Homo sapiens, UniProt Q00536)
[18] = target: DDR2 N456S (Homo sapiens, UniProt Q16832, N456S)
[19] = target: PKN2 (PRK2) (Homo sapiens, UniProt Q16513)
[20] = target: GRK1 (Homo sapiens, UniProt Q15835)
[21] = target: PKMYT1 (Homo sapiens, UniProt Q99640)
[22] = target: DMPK (Homo sapiens, UniProt Q09013)
[23] = target: CAMKK2 (CaMKK beta) (Homo sapiens, UniProt Q96RR4)
[24] = target: KIT D816H (Homo sapiens, UniProt P10721, D816H)
[25] = target: TEC (Homo sapiens, UniProt P42680)
[26] = target: FYN A (Homo sapiens, UniProt P06241)
[27] = target: MAP3K10 (MLK2) (Homo sapiens, UniProt Q02779)
[28] = target: KIT D820E (Homo sapiens, UniProt P10721, D820E)
[29] = target: AMPK (A2/B2/G2) (Homo sapiens, UniProt P54646)
AMPK (A2/B2/G2), sequence (P54646 whole entry): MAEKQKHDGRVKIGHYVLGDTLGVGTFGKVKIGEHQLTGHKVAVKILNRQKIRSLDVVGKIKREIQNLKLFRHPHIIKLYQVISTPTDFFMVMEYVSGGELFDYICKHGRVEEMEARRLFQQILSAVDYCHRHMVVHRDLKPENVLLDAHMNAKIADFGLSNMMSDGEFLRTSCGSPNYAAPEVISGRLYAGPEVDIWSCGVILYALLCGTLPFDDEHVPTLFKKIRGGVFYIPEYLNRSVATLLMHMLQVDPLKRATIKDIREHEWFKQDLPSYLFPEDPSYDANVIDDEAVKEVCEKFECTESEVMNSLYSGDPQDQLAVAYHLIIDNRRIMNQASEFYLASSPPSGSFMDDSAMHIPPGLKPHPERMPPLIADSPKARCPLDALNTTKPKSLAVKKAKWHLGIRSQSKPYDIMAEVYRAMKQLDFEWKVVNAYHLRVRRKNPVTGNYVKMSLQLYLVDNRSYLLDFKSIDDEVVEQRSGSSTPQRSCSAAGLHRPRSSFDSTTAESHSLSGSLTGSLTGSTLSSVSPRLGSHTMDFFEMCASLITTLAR
AMPK (A2/B2/G2), sequence (O43741 whole entry partner): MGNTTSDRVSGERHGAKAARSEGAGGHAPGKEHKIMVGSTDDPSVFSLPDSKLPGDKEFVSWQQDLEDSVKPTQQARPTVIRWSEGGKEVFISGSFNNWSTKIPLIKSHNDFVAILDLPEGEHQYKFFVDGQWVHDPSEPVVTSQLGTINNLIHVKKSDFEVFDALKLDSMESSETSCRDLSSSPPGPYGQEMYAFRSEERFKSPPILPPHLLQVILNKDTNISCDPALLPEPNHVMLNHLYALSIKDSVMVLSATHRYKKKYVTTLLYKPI
AMPK (A2/B2/G2), sequence (Q9UGJ0 whole entry partner): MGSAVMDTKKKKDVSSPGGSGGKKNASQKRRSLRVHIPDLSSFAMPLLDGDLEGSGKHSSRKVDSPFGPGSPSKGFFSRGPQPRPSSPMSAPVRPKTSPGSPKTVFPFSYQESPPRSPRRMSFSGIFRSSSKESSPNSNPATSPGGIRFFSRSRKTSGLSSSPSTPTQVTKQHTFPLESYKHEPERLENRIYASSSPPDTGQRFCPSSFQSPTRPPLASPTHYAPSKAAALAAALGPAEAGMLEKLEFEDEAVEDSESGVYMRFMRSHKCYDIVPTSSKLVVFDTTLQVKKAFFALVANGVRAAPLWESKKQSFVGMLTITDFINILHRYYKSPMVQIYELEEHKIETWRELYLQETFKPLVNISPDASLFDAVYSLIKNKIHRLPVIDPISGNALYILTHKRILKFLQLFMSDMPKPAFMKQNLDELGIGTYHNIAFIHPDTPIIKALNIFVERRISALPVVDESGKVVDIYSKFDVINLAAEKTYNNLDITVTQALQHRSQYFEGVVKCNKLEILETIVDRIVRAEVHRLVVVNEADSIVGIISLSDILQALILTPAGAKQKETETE

AMPK (A2/B2/G1), sequence (P54646 whole entry): as the sequence (P54646 whole entry) above
AMPK (A2/B2/G1), sequence (O43741 whole entry partner): as the sequence (O43741 whole entry partner) above
AMPK (A2/B2/G1), sequence (P54619 whole entry partner): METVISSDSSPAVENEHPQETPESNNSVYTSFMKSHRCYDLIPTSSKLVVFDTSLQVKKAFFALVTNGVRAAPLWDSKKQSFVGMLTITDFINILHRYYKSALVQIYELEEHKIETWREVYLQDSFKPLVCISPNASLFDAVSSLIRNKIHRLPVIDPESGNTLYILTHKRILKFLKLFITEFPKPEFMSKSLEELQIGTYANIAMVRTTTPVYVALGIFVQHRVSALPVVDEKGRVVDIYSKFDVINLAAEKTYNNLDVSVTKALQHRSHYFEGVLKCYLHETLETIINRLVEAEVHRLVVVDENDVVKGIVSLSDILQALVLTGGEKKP
MAP4K1 (HPK1), sequence (Q92918 whole entry): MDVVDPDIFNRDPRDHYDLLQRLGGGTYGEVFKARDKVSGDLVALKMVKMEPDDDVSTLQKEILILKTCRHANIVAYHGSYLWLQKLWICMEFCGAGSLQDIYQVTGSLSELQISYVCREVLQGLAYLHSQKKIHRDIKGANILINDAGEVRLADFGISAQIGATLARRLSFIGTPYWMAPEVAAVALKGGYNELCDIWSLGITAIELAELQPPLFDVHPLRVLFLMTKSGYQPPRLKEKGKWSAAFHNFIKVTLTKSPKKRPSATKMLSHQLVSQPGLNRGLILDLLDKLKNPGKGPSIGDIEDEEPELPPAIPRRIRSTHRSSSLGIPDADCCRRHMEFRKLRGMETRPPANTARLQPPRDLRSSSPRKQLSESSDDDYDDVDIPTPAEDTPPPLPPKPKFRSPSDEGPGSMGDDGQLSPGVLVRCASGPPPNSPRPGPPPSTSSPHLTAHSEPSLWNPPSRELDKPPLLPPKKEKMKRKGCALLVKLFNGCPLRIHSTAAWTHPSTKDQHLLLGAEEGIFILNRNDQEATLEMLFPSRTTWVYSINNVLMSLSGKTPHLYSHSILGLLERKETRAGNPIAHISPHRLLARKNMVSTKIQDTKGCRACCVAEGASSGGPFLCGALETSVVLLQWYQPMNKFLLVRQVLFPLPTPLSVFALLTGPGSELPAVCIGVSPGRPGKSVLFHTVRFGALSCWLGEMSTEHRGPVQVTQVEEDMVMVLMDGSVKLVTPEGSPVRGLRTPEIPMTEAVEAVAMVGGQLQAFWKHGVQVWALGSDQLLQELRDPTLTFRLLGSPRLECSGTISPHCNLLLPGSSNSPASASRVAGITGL
GRK1, sequence (Q15835 whole entry): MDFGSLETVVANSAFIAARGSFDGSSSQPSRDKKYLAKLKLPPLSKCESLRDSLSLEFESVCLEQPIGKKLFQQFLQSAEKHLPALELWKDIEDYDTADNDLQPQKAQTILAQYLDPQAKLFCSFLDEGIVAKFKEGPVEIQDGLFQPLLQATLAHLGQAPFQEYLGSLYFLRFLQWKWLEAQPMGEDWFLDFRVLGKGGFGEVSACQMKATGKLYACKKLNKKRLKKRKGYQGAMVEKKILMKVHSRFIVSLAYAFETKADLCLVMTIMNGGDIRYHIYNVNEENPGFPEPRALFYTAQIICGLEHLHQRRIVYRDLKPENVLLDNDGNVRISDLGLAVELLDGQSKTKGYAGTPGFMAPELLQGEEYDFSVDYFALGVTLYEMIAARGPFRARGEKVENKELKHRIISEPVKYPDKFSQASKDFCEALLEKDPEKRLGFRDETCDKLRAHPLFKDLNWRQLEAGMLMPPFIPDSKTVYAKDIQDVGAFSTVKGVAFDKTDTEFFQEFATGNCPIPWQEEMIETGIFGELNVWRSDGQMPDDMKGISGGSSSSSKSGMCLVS
DMPK, sequence (Q09013 whole entry): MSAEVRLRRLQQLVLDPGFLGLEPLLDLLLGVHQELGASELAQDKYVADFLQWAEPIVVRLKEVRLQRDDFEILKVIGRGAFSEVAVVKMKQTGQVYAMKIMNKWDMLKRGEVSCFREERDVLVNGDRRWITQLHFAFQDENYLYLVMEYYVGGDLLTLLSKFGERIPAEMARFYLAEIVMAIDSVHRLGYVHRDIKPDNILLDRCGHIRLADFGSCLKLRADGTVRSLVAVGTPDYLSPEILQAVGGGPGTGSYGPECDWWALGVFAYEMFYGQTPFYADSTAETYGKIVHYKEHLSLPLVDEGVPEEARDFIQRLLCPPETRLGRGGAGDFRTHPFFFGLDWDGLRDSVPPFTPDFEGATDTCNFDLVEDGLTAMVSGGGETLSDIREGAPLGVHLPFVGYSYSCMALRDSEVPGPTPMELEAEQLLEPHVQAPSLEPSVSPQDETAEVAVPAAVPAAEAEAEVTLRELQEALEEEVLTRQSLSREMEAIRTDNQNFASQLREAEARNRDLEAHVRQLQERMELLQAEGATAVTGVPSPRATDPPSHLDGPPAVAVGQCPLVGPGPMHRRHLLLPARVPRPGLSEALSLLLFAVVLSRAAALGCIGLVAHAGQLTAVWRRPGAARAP
DDR2, sequence (Q16832 whole entry): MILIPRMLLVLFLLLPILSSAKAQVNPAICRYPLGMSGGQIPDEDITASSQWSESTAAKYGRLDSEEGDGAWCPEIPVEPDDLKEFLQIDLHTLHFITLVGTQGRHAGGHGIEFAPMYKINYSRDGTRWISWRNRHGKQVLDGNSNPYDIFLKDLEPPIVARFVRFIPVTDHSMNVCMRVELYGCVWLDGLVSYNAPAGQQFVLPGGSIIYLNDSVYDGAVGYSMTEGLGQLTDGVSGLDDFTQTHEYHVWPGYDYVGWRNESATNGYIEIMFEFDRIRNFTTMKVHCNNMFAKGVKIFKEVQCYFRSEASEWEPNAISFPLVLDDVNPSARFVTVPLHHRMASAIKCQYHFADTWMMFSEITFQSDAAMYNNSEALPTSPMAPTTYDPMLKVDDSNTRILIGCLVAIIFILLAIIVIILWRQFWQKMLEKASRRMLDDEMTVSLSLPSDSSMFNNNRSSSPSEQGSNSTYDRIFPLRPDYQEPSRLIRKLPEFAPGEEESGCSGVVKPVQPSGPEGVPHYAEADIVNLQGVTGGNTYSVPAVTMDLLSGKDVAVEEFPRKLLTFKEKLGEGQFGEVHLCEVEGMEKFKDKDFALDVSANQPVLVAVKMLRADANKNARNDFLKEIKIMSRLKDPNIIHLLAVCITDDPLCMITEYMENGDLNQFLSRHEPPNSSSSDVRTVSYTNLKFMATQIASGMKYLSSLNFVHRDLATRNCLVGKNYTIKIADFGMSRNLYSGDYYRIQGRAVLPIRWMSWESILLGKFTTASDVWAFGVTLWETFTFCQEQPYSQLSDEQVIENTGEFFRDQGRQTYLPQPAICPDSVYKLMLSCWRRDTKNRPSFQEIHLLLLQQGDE
DDR2 N456S, sequence (Q16832 whole entry N456S): as the sequence (Q16832 whole entry) above, with N456S counted along it

SMILES: COc1ccc2nc3cc(Cl)ccc3c(Nc3cc(CN4CCCC4)c(O)c(CN4CCCC4)c3)c2n1 [Pyronaridine, 4-[(7-Chloro-2-methoxybenzo[b][1,5]naphthyridin-10-yl)amino]-2,6-bis(1-pyrrolidinylmethyl)phenol phosphate (1:4)]
- inhibition at 1 µM [1]: 1%
- inhibition at 1 µM [2]: 0%
- inhibition at 1 µM [3]: -1%
- inhibition at 1 µM [4]: 10%
- inhibition at 1 µM [5]: -1%
- inhibition at 1 µM [6]: 10%
- inhibition at 1 µM [7]: 4%
- inhibition at 1 µM [8]: -11%
- inhibition at 1 µM [9]: 0%
- inhibition at 1 µM [10]: 0%
- inhibition at 1 µM [11]: -6%
- inhibition at 1 µM [12]: 0%
- inhibition at 1 µM [13]: 1%
- inhibition at 1 µM [14]: 5%
- inhibition at 1 µM [15]: 6%
- inhibition at 1 µM [16]: 0%
- inhibition at 1 µM [17]: -12%
- inhibition at 1 µM [18]: 17%
- inhibition at 1 µM [19]: 6%
- inhibition at 1 µM [20]: 1%
- inhibition at 1 µM [21]: 1%
- inhibition at 1 µM [22]: 4%
- inhibition at 1 µM [23]: -1%
- inhibition at 1 µM [24]: -7%
- inhibition at 1 µM [25]: 7%
- inhibition at 1 µM [26]: -3%
- inhibition at 1 µM [27]: 0%
- inhibition at 1 µM [28]: -4%
- inhibition at 1 µM [29]: 3%
